Test results reported in patent US20230339952A1, “MACROCYCLIC HETEROCYCLES AND USES THEREOF” (Kumquat Biosciences Inc., priority 2022, published 2023).
Read-outs that look alike come from different tables or passages of the source.

What was measured:
[1] = target: SOS1 (Homo sapiens (Human), UniProt Q07889); assay: Ras-SOS interaction assay (HTRF), K-Ras G13D utilized; type: binding; details: K-Ras G13D
[2] = system: NCI-H1975 (ATCC CRL-5908) cell line comprising an EGFR T790M L858R double mutation; assay: EGFR-SOS cellular inhibition assay (CellTiter-Glo cell proliferation); type: cell-based; details: Homo sapiens
Procedure: A CellTiter-Glo (CTG) luminescent based assay (Promega) is used to assess growth of the cells, as a measurement of the ability of the compounds herein to inhibit EGFR signaling in the cells. […] The day after plating, cells are treated with a dilution series (e.g., a 9 point 3-fold dilution series) of the compounds herein (e.g., approximately 125 μL final volume per well).

[3] = 120 h, NCI-H1975 cell proliferation, approximately 5 days, read-out: H1975 IC50

Sequence of SOS1 (Q07889 564-1049): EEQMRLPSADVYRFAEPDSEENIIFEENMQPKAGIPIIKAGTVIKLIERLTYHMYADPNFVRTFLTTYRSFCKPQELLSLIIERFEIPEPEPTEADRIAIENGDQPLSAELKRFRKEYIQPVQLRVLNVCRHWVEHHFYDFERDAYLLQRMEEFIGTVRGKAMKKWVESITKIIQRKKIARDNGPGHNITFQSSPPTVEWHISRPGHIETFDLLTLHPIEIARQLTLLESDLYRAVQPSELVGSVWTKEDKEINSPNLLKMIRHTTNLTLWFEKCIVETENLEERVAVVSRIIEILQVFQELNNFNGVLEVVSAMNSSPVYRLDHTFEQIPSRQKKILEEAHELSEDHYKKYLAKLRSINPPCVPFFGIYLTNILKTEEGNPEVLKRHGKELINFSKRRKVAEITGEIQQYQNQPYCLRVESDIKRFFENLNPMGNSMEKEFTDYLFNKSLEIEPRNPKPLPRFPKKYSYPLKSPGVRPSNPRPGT

Structure (SMILES): C[C@H]1Nc2ncnc3c2cc(C2(C#N)CC2)c(=O)n3CCCCCC/C=C/CN2CCC(CC2)C(F)(F)c2cccc1c2 [Compound 131, 1-((4R,E)-2,2-difluoro-4-methyl-6^7-oxo-6^7,6^8-dihydro-5-aza-6(4,8)-pyrido[2,3-d]pyrimidina-1(4,1)-piperidina-3(1,3)-benzenacyclopentadecaphan-13-en-6^6-yl)cyclopropane-1-carbonitrile]
- IC50 ([1]; read-out: SOS1 IC50): < 100 nM
- IC50 [2, 3]: < 1000 nM

Structure (SMILES): C[C@H]1Nc2ncnc3c2cc(C2CCS(=O)(=O)CC2)c(=O)n3CCCN(C)C(=O)CCN2CCC(CC2)C(F)(F)c2cccc1c2 [Compound 41, (4R)-6^6-(1,1-dioxidotetrahydro-2H-thiopyran-4-yl)-2,2-difluoro-4,10-dimethyl-6^7,6^8-dihydro-5,10-diaza-6(4,8)-pyrido[2,3-d]pyrimidina-1(4,1)-piperidina-3(1,3)-benzenacyclotridecaphane-6^7,11-dione]
- IC50 ([1]; read-out: SOS1 IC50): < 100 nM
- IC50 [2, 3]: < 1000 nM

Structure (SMILES): C[C@H]1Nc2ncnc3c2cc(C2(C#N)CC2)c(=O)n3CCCn2cc(nn2)CN2CCC(CC2)C(F)(F)c2cccc1c2 [Compound 95, 1-((6R,Z)-4,4-difluoro-6-methyl-8^7-oxo-8^7,8^8-dihydro-11H-7-aza-8(4,8)-pyrido[2,3-d]pyrimidina-3(1,4)-piperidina-1(4,1)-triazola-5(1,3)-benzenacycloundecaphane-8^6-yl)cyclopropane-1-carbonitrile]
- IC50 ([1]; read-out: SOS1 IC50): < 100 nM
- IC50 [2, 3]: < 1000 nM

Structure (SMILES): C[C@H]1Nc2ncnc3c2cc(C2CCS(=O)(=O)CC2)c(=O)n3CCCOCCCCN2CCC(CC2)C(F)(F)c2cccc1c2F [Compound 203, (4R)-6^6-(1,1-dioxidotetrahydro-2H-thiopyran-4-yl)-3^2,2,2-trifluoro-4-methyl-6^7,6^8-dihydro-10-oxa-5-aza-6(4,8)-pyrido[2,3-d]pyrimidina-1(4,1)-piperidina-3(1,3)-benzenacyclotetradecaphan-6^7-one]
- IC50 ([1]; read-out: SOS1 IC50): < 100 nM
- IC50 [2, 3]: < 1000 nM

Structure (SMILES): C[C@H]1Nc2ncnc3c2cc(C2CCS(=O)(=O)CC2)c(=O)n3CCCCCCN2CC(CCC(F)(F)c3cccc1c3F)C2 [Compound 90, (3R)-1^6-(1,1-dioxidotetrahydro-2H-thiopyran-4-yl)-4^2,5,5-trifluoro-3-methyl-1^7,1^8-dihydro-2-aza-1(4,8)-pyrido[2,3-d]pyrimidina-8(3,1)-azetidina-4(1,3)-benzenacyclotetradecaphan-1^7-one]
- IC50 ([1]; read-out: SOS1 IC50): < 100 nM
- IC50 [2, 3]: < 1000 nM

Structure (SMILES): CC(C)N1CCC(c2cc3c4ncnc3n(c2=O)CCCCCCN2CCC(CC2)CC(F)(F)c2cccc(c2F)[C@@H](C)N4)CC1 [Compound 140, (3R)-4^2,5,5-trifluoro-1^6-(1-isopropylpiperidin-4-yl)-3-methyl-1^7,1^8-dihydro-2-aza-1(4,8)-pyrido[2,3-d]pyrimidina-7(4,1)-piperidina-4(1,3)-benzenacyclotridecaphan-1^7-one]
- IC50 ([1]; read-out: SOS1 IC50): < 100 nM
- IC50 [2, 3]: < 1000 nM

Structure (SMILES): C[C@H]1Nc2ncnc3c2cc(C2CCS(=O)(=O)CC2)c(=O)n3CCCCC[C@H](O)CN2CCC(CC2)C(F)(F)c2cccc1c2 [Compound 86, (4R,12S)-6^6-(1,1-dioxidotetrahydro-2H-thiopyran-4-yl)-2,2-difluoro-12-hydroxy-4-methyl-6^7,6^8-dihydro-5-aza-6(4,8)-pyrido[2,3-d]pyrimidina-1(4,1)-piperidina-3(1,3)-benzenacyclotridecaphan-6^7-one]
- IC50 ([1]; read-out: SOS1 IC50): < 100 nM
- IC50 [2, 3]: < 1000 nM

Structure (SMILES): C[C@H]1Nc2ncnc3c2cc(C2(C#N)CC2)c(=O)n3CCCCn2cc(nn2)CN2CCC(CC2)C(F)(F)c2cccc1c2 [Compound 94, 1-((6R,Z)-4,4-difluoro-6-methyl-8^7-oxo-8^7,8^8-dihydro-1^1H-7-aza-8(4,8)-pyrido[2,3-d]pyrimidina-3(1,4)-piperidina-1(4,1)-triazola-5(1,3)-benzenacyclododecaphane-8^6-yl)cyclopropane-1-carbonitrile]
- IC50 ([1]; read-out: SOS1 IC50): < 100 nM
- IC50 [2, 3]: < 1000 nM

Structure (SMILES): C[C@H]1Nc2ncnc3c2cc(C2(C#N)CCOCC2)c(=O)n3CCCCCCCN2CCC(CC2)C(F)(F)c2cccc1c2 [Compound 76, 4-((4R)-2,2-difluoro-4-methyl-6^7-oxo-6^7,6^8-dihydro-5-aza-6(4,8)-pyrido[2,3-d]pyrimidina-1(4,1)-piperidina-3(1,3)-benzenacyclotridecaphane-6^6-yl)tetrahydro-2H-pyran-4-carbonitrile]
- IC50 ([1]; read-out: SOS1 IC50): < 100 nM
- IC50 [2, 3]: < 1000 nM

Structure (SMILES): COc1nnc2c3cc(C4CCS(=O)(=O)CC4)c(nc13)OCCCCCCCN1CCC(CC1)C(F)(F)c1cccc(c1F)[C@@H](C)N2 [Compound 177, (R)-4-(3^2,2,2-trifluoro-6^8-methoxy-4-methyl-7-oxa-5-aza-6(5,2)-pyrido[2,3-d]pyridazina-1(4,1)-piperidina-3(1,3)-benzenacyclotetradecaphane-6^3-yl)tetrahydro-2H-thiopyran 1,1-dioxide]
- IC50 ([1]; read-out: SOS1 IC50): < 100 nM
- IC50 [2, 3]: < 1000 nM

Structure (SMILES): C[C@H]1Nc2ncnc3c2cc(C2CCS(=O)(=O)CC2)c(=O)n3CCCCCCCN2C3CCC2CC(C3)C(F)(F)c2cccc1c2F [Compound 113, (11S,15R,4R)-6^6-(1,1-dioxidotetrahydro-2H-thiopyran-4-yl)-32,2,2-trifluoro-4-methyl-6^7,6^8-dihydro-1^8,5-diaza-6(4,8)-pyrido[2,3-d]pyrimidina-1(3,8)-bicyclo[3.2.1]octana-3(1,3)-benzenacyclotridecaphan-6^7-one]
- IC50 ([1]; read-out: SOS1 IC50): < 100 nM
- IC50 [2, 3]: < 1000 nM

Structure (SMILES): C[C@H]1Nc2ncnc3c2cc(C2CCS(=O)(=O)CC2)c(=O)n3CCCCNC(=O)[C@H](C)N2CCC(CC2)C(F)(F)c2cccc1c2 [Compound 85, (4R,13S)-6^6-(1,1-dioxidotetrahydro-2H-thiopyran-4-yl)-2,2-difluoro-4,13-dimethyl-6^7,6^8-dihydro-5,11-diaza-6(4,8)-pyrido[2,3-d]pyrimidina-1(4,1)-piperidina-3(1,3)-benzenacyclotridecaphane-6^7,12-dione]
- IC50 ([1]; read-out: SOS1 IC50): < 100 nM
- IC50 [2, 3]: < 1000 nM

Structure (SMILES): C[C@H]1Nc2ncnc3c2cc(C2(C#N)CC2)c(=O)n3CCCCCCN2CCC(CC2)C(F)(F)c2cccc1c2 [Compound 104, 1-((4R)-2,2-difluoro-4-methyl-6^7-oxo-6^7,6^8-dihydro-5-aza-6(4,8)-pyrido[2,3-d]pyrimidina-1(4,1)-piperidina-3(1,3)-benzenacyclododecaphane-6^6-yl)cyclopropane-1-carbonitrile]
- IC50 ([1]; read-out: SOS1 IC50): < 100 nM
- IC50 [2, 3]: < 1000 nM

Structure (SMILES): CC(C)N1CCC(c2cc3c4ncnc3n(c2=O)CCCC/C=C/CN2CCC(CC2)C(F)(F)c2cccc(c2)[C@@H](C)N4)CC1 [Compound 149, (4R,E)-2,2-difluoro-6^6-(1-isopropylpiperidin-4-yl)-4-methyl-6^7,6^8-dihydro-5-aza-6(4,8)-pyrido[2,3-d]pyrimidina-1(4,1)-piperidina-3(1,3)-benzenacyclotridecaphan-11-en-6^7-one]
- IC50 ([1]; read-out: SOS1 IC50): < 100 nM
- IC50 [2, 3]: < 1000 nM

Structure (SMILES): CC1CCCCCCn2c(=O)c(C3(C#N)CC3)cc3c(ncnc32)N[C@H](C)c2cccc(c2F)C(F)(F)C2CCN1CC2 (stereo partly drawn) [Compound 34, 1-((4R)-3^2,2,2-trifluoro-4,13-dimethyl-6^7-oxo-6^7,6^8-dihydro-5-aza-6(4,8)-pyrido[2,3-d]pyrimidina-1(4,1)-piperidina-3(1,3)-benzenacyclotridecaphane-6^6-yl)cyclopropane-1-carbonitrile]
- IC50 ([1]; read-out: SOS1 IC50): < 100 nM
- IC50 [2, 3]: < 1000 nM

Structure (SMILES): CC(C)N1CCN(c2cc3c4ncnc3n(c2=O)CCCCCCN2CCC(CC2)CC(F)(F)c2cccc(c2)[C@@H](C)N4)CC1 [Compound 50, (3R)-5,5-difluoro-1^6-(4-isopropylpiperazin-1-yl)-3-methyl-1^7,1^8-dihydro-2-aza-1(4,8)-pyrido[2,3-d]pyrimidina-7(4,1)-piperidina-4(1,3)-benzenacyclotridecaphan-1^7-one]
- IC50 ([1]; read-out: SOS1 IC50): < 100 nM
- IC50 [2, 3]: < 1000 nM

Structure (SMILES): C[C@H]1Nc2ncnc3c2cc(C2(C#N)CC2)c(=O)n3CCCC/C=C/CN2CCC(CC2(C)C)C(F)(F)c2cccc1c2 (stereo partly drawn) [Compound 70, 1-((4R,E)-2,2-difluoro-1^2,1^2,4-trimethyl-6^7-oxo-6^7,6^8-dihydro-5-aza-6(4,8)-pyrido[2,3-d]pyrimidina-1(4,1)-piperidina-3(1,3)-benzenacyclotridecaphan-11-en-6^6-yl)cyclopropane-1-carbonitrile]
- IC50 ([1]; read-out: SOS1 IC50): < 100 nM
- IC50 [2, 3]: < 1000 nM

Structure (SMILES): Cc1nc2c3cc(C4(C#N)CC4)c(=O)n(c3n1)CCCCCCCOCC(F)(F)c1cccc(c1F)[C@@H](C)N2 [Compound 44, 1-((3R)-4^2,5,5-trifluoro-1^2,3-dimethyl-1^7-oxo-1^7,1^8-dihydro-7-oxa-2-aza-1(4,8)-pyrido[2,3-d]pyrimidina-4(1,3)-benzenacyclotetradecaphane-1^6-yl)cyclopropane-1-carbonitrile]
- IC50 ([1]; read-out: SOS1 IC50): 100 to 5000 nM
- IC50 [2, 3]: 1000 to 10000 nM

Structure (SMILES): C[C@H]1Nc2ncnc3c2cc(C2(C#N)CCS(=O)(=O)CC2)c(=O)n3CCCCCCCN2CC(C2)CC(F)(F)c2cccc1c2 [Compound 210, 4-((3R)-5,5-difluoro-3-methyl-1^7-oxo-1^7,1^8-dihydro-2-aza-1(4,8)-pyrido[2,3-d]pyrimidina-7(3,1)-azetidina-4(1,3)-benzenacyclotetradecaphane-1^6-yl)tetrahydro-2H-thiopyran-4-carbonitrile 1,1-dioxide]
- IC50 ([1]; read-out: IC50 value against SOS1): < 50 nM
- IC50 ([1]; read-out: SOS1 IC50): < 100 nM
- IC50 [2, 3]: < 1000 nM
- IC50 ([2]; NCI-H1975, EGFR T790M L858R double mutation, read-out: IC50 in inhibiting growth of NCI-H1975 cell line): < 500 nM

Structure (SMILES): C[C@H]1Nc2ncnc3c2cc(C2CCS(=O)(=O)CC2)c(=O)n3Cc2cn(nn2)CCCCN2CCC(CC2)C(F)(F)c2cccc1c2 [Compound 40, (5R,Z)-3^6-(1,1-dioxidotetrahydro-2H-thiopyran-4-yl)-7,7-difluoro-5-methyl-3^7,3^8-dihydro-1^1H-4-aza-3(8,4)-pyrido[2,3-d]pyrimidina-8(4,1)-piperidina-1(4,1)-triazola-6(1,3)-benzenacyclododecaphan-3^7-one]
- IC50 ([1]; read-out: SOS1 IC50): < 100 nM
- IC50 [2, 3]: < 1000 nM
